Entries after “also recorded” stand apart in the source; their conditions may differ.
Legend:
intestinal microbiome = test: allo-HSCT patients who underwent intestinal microbiome profiling (meropenem-treated vs untreated); assay type: in vivo, human
Description: Next, the effects of meropenem on the composition of the colonic microbiota of transplanted patients and mice were investigated. Fecal specimens were collected from HSCT patients transplanted from 2014 to 2019 and 44 patients were identified who were treated with allo-HSCT following conditioning with fludarabine and busulfan.
Fecal samples collected at baseline following hospital admission around day −7 as well as on day 14 following allo-HSCT were examined (FIG. 15A). […] A paired differential abundance analysis was then performed, asking which bacterial genera were the most changed from baseline in the two subgroups of patients.
Retrospective study design.
(§1) Sequencing of 16S rRNA gene amplicons. Fecal samples from patients and mice were weighed before DNA isolation. In brief, genomic DNA was isolated using the QIAAMP® DNA mini kit (51306, QIAGEN®) according to the manufacturer's protocol that was modified to include an intensive bead-beating lysis step. The V4 region of 16S rRNA gene was amplified by PCR from 100 ng of each of extracted and purified genomic DNA using 515 forward and 806 reverse primer pairs (59). The quality and quantity of the barcoded amplicons were assessed on an Agilent 4200 TapeStation system (Agilent) and QUBIT™ Fluorometer (THERMO FISHER […]™), and libraries were prepared after pooling at equimolar ratios. The final libraries were purified using […]® gel extraction kit (28706X4, QIAGEN®) and sequenced with a 2×250 base pair paired-end protocol on the […]® MISEQ™ platform.
(§2) Microbiome data analysis. Sequencing data from paired-end reads were de-multiplexed using QIIME 2 (60). Merging of paired-end reads, dereplicating, and length filtering was performed using VSEARCH 2.17.1 (61). Following de-noising and chimera calling using the unoise3 command (62), unique sequences were taxonomically classified with mothur (63) using the Silva database (64) version 138. Weighted UniFrac distances (65) were determined using QIIME 2, visualized using principal coordinate analysis, and evaluated for statistical significance using permutational multivariate analysis of variance (PERMANOVA) testing. For differential abundance analysis, abundances of sequences belonging to taxonomical groups were included for analysis using the Mann-Whitney U test and adjusted for multiple comparisons using the method of Benjamini and Hochberg. Paired samples were analyzed using the Wilcoxon signed rank test with adjustment for multiple comparisons.

intestinal microbiota = test: Murine GVHD model: fecal microbiome composition (16S rRNA sequencing) and bacterial density (qPCR); assay type: in vivo, mice
Description: Effects of meropenem treatment on the composition of the intestinal microbiota of allo-HSCT mice were also examined (FIG. 15F).
as §1, §2
Quantification of fecal bacterial density. Genomic DNA was isolated from stool as described above. qPCR was performed as previously described (66). In brief, 16S rRNA gene sequences were amplified from total fecal DNA using the primers 926F (5′-[…]-3′, where K is a G or a T; SEQ ID NO:2) and 1062R (5′-[…]-3′, where R is an A or a G; SEQ ID NO:3). Real-time PCR were carried out in 96-well optical plates on QUANTSTUDIO™ Flex 6 RT PCR (APPLIED BIOSYSTEMS™) and KAPA SYBR® FAST Master Mix (Roche). The PCR conditions included one initial denaturing step of 10 min at 95° C. and 40 cycles of 95° C. for 20 sec and 60 °C for 1 min. Melting-curve analysis was performed after amplification. To determined bacterial density, a plasmid with a 16S rRNA gene of a murine Blautia isolate was generated in the pCR4 backbone and used as a standard.

[1] = test system: Bacteroides thetaiotaomicron (ATCC 29148); test: MIC of meropenem by MIC test strips; assay type: cell-based; conditions: ATCC29148, human-derived BT
Description: (§3) The minimum inhibitory concentration (MIC) of meropenem against murine BT was quantified using MIC test strips (Table 4).
(§4) Culturing of bacteria. Mouse-derived BT (MDA-JAX BT001), Enterococcus faecalis (MDA-JAX EF001) and Clostridium disporicum (MDA-JAX CD001), Clostridium saudiense (MDA-JAX CS001), and Lachnospiraceae unclassified (MDA-JAX LS001) were isolated and cultured from mouse stool samples suspended in 1 ml of chilled 20% anaerobic glycerol in a Whitley anaerobic chamber (10% H2, 5% CO2 and 85% N2). Human-derived BT (ATCC 29148) was purchased from ATCC. Bacterial number was quantified using a Nexcelom Cellometer cell counter with SYTO™ BC dye and propidium iodide. For measuring MICs against meropenem, bacteria were cultured on BYE plates including 5% sterilized rumen fluid (Fisher Scientific) with MIC test strips (LIOFILCHEM™ MTS™ Meropenem [MRP] 0.016-256 μg/mL, THERMO FISHER […]™)). Bacterial growth experiments were in liquid media were performed in a novel bacterial media, BYEM10, composed of a hybrid of BHI and M10 supplemented with yeast extract (Table 5).

[2] = test system: Clostridium saudiense (MDA-JAX CS001); test: MIC of meropenem by MIC test strips; assay type: cell-based; conditions: mouse-derived
Description: as §3, §4

[3] = test system: Bacteroides thetaiotaomicron (MDA-JAX BT001); test: MIC of meropenem by MIC test strips; assay type: cell-based; conditions: mouse-derived BT
Description: as §3, §4

[4] = test system: Enterococcus faecalis (MDA-JAX EF001); test: MIC of meropenem by MIC test strips; assay type: cell-based; conditions: mouse-derived
Description: as §3, §4

[5] = test system: Lachnospiraceae unclassified (MDA-JAX LS001); test: MIC of meropenem by MIC test strips; assay type: cell-based; conditions: mouse-derived
Description: as §3, §4

[6] = test system: Clostridium disporicum (MDA-JAX CD001); test: MIC of meropenem by MIC test strips; assay type: cell-based; conditions: mouse-derived
Description: as §3, §4

[7] = human, in vivo
Description: In this study, data from 295 patients with acute myeloid leukemia (AML) or myelodysplastic syndrome (MDS) who underwent allo-HSCT with tacrolimus and methotrexate as GVHD prophylaxis following conditioning therapy with fludarabine and 5 busulfan from 2011 to 2016 were retrospectively examined. The incidence of acute intestinal GVHD until day 100 after transplant was evaluated and compared were patients who received neither cefepime nor meropenem, those who received cefepime alone, those who received meropenem alone, and those who received both cefepime and meropenem during the period from days −10 to 30 relative to allo-HSCT infusion.
Retrospective study design. 295 patients with acute myeloid leukemia (AML) or myelodysplastic syndrome (MDS) underwent allogeneic hematopoietic stem cell transplantation (allo-HSCT) with fludarabine plus busulfan as conditioning therapy and tacrolimus and methotrexate as GVHD prophylaxis from 2011 and 2016 and were analyzed retrospectively. Patients were classified by antibiotic exposures, including those who received neither cefepime nor meropenem, those who received cefepime alone, those who received meropenem alone and those who received both cefepime and meropenem from day −10 to day 30 after allo-HSCT. Acute GVHD was diagnosed by clinical and/or pathological findings, and graded according to standard criteria (56).

[8] = 44 microbiome-profiled patients, meropenem days −10 to 14

C[C@@H](O)[C@H]1C(=O)N2C(C(=O)O)=C(S[C@@H]3CN[C@H](C(=O)N(C)C)C3)[C@H](C)[C@H]12 [meropenem]
Acute GVHD Grade 0, number of patients (intestinal microbiome; [8]): 7
Acute GVHD Grade 0, percentage of patients (intestinal microbiome; [8]): (38%)
Acute GVHD Grade I, number of patients (intestinal microbiome; [8]): 0
Acute GVHD Grade I, percentage of patients (intestinal microbiome; [8]): (0%)
Acute GVHD Grade II, number of patients (intestinal microbiome; [8]): 7
Acute GVHD Grade II, percentage of patients (intestinal microbiome; [8]): (38%)
Acute GVHD Grade III-IV, number of patients (intestinal microbiome; [8]): 4
Acute GVHD Grade III-IV, percentage of patients (intestinal microbiome; [8]): (22%)
bacterial genera most changed from baseline (paired differential abundance) (intestinal microbiome; fecal samples pre-HSCT vs day 14): significant expansion of bacteria from the genus Bacteroides
survival after allo-HSCT (meropenem in drinking water days 3 to 15 vs control allo-HSCT mice): significantly worsened survival
GVHD histological scores in the colon (mouse, in vivo): significantly higher
GVHD histology in the small intestine and liver (mouse, in vivo): not substantially different
epithelial damage in the colon (H&E) (mouse, in vivo): severe epithelial damage in the colon
abundance of murine BT (intestinal microbiota; allo-HSCT mice, days 0, 7, 14, 21): suppressed by meropenem-supplemented drinking water but quickly expanded after cessation of meropenem therapy; also recorded: higher abundances of BT
abundance of Clostridia (intestinal microbiota; allogeneic mice, days 0, 7, 14, 21): significantly decreased; also recorded: depleted
fecal bacterial density (intestinal microbiota; day 14 after allo-HSCT, during meropenem treatment): significantly decreased bacterial density
fecal bacterial density (intestinal microbiota; day 21, 6 days after stopping meropenem): recovered to a level similar to that of untreated syngeneic and allogeneic mice
alpha diversity (inverse Simpson index) (intestinal microbiota; fecal samples day 21): significantly reduced
bacterial genera depleted (intestinal microbiota; fecal samples day 21): many genera were depleted, including Blautia, Lachnoclostridium, and other members of Lachnospiraceae
bacterial genera with increased abundance (intestinal microbiota; fecal samples day 21): significantly higher abundances of bacteria from several genera, including most substantially Bacteroides, as well as Enterococcus, Erysipelatoclostridium, Bifidobacterium and Akkermansia
MIC [1]: 6 µg/mL
MIC [2]: 0.38 µg/mL
MIC [3]: 4 µg/mL
MIC [4]: 12 µg/mL
MIC [5]: 0.38 µg/mL
MIC [6]: 0.094 µg/mL
Acute GVHD Grade 0, number of patients [7]: 13
Acute GVHD Grade 0, percentage of patients [7]: (41%)
Acute GVHD Grade I, number of patients [7]: 5
Acute GVHD Grade I, percentage of patients [7]: (16%)
Acute GVHD Grade II, number of patients [7]: 10
Acute GVHD Grade II, percentage of patients [7]: (31%)
incidence of acute intestinal GVHD [7]: significantly higher
Acute GVHD Grade III-IV, number of patients ([7]; iv): 4
Acute GVHD Grade III-IV, percentage of patients ([7]; iv): (13%)

— US20240216410A1, “METHODS AND COMPOSITIONS FOR TREATING CANCER THERAPY-INDUCED NEUTROPENIC FEVER AND/OR GVHD” (BOARD OF REGENTS, THE UNIVERSITY OF TEXAS SYSTEM, priority 2021, published 2024)
